Series [1] deals with human skeletal muscle cells. Put plainly: Glucose uptake in skeletal muscle cells. As to conditions: compared with control (FIG. 5). The format is cell-based.
Series [2] deals with primary human hepatic stellate cells. Description: Anti-fibrotic effect in TGF-β stimulated primary hepatic stellate cells (ACTA2 staining). The class given is cell-based. The note with it: 10 μM. How it is done: The procedure was performed as described above for the CY5 labelled peptide imaging in HSkMCs with a few minor modifications. Primary hepatic stellate cells were investigated as they are considered to be the most relevant profibrogenic cells operating in acute and chronic liver diseases. The stellate cells were seeded directly onto the glass coverslips at a density of 5,000 cells/mL. After starvation, the cells were treated with pep_1E99R5 (5 ng/mL) or Elafibranor (10 μM) for 6 hours. The cells were washed and subsequently treated with 5 ng/ml […] (Bio Techne, Minneapolis, MN, United States) for 24 hours to induce fibrosis. The cells were fixed and stained with ACTA2 antibody (Assay Genie, Dublin, Ireland), a marker of fibroblast activation.
The confocal images were analysed with custom Python scripts using the scikit-image library version 0.15. The cells and nuclei were segmented using a simple threshold computed using the mean value of the image. Using the Nuclei as a seed we separated the cells in the cell mask using watershed segmentation. Cell size was then quantified in pixels. [Stéfan van der Walt, Johannes L. Schönberger, Juan Nunez-Iglesias, Frangois Boulogne, Joshua D. Warner, Neil Yager, Emmanuelle Gouillart, Tony Yu and the scikit-image contributors. scikit-image: Image processing in Python. PeerJ 2:e453 (2014)

The nature of another series: PK profile (half-life). The note with it: in vivo.
The conditions of series [3]: in humans; cited from earlier work.
In the next series the test system is lipoproteins. The note with it: binding to lipoproteins; cited from earlier work.
For a further series, the system named is Human primary cells. Put plainly: Cytotoxicity in primary human cell-based systems (SRB / alamarBlue). As to conditions: at the concentration tested. On the procedure:
Systems are derived from either single cell types or co-culture systems. Adherent cell types are cultured in 96 or 384-well plates until confluence, followed by the addition of PBMC (SAg and LPS systems). The BT system consists of CD19+ B cells co-cultured with PBMC and stimulated with a BCR activator and low levels of TCR stimulation. Test agents prepared in either DMSO (small molecules; final concentration s 0.1%) or PBS (biologics) are added at the indicated concentrations 1-hr before stimulation, and remain in culture for 24 h or as otherwise indicated (48 h, MyoF system; 72 h, BT system (soluble readouts); 168 h, BT system (secreted IgG)). […] Soluble factors from supernatants are quantified using either HTRF® detection, bead-based multiplex immunoassay or capture ELISA. Overt adverse effects of test agents on cell proliferation and viability (cytotoxicity) are detected by sulforhodamine B (SRB) staining, for adherent cells, and alamarBlue® reduction for cells in suspension. For proliferation assays, individual cell types are cultured at subconfluence and measured at time points optimized for each system (48 h: 3C and CASM3C systems; 72 h: BT and HDF3CGF systems; 96 h: SAg system). […]
(Alamar Blue is a resazurin reagent that responds to reducing activity.)

The subject of a further series is C57BL/6 mice. Put plainly: Acetaminophen (APAP)-induced acute liver injury mouse model, ALT/AST. The class given is in vivo. As to conditions: inferred from ALT/AST time course.

Like-named read-outs stand apart in the source and are kept apart here. Square brackets hold non-standard residues; d marks the D form. Peptide text beside a SMILES is read from it.

A word on the half-life: it is the time in which the quantity being followed falls by half. What is called fraction unbound is the share of the substance not bound to proteins or other matrix.

Experimental for C57BL/6 mice: Animals for Acetaminophen (APAP)-induced Acute Liver Injury Mouse Model: All animal procedures were performed by Melior Discovery (Exton, PA, USA) in accordance with Institutional Animal Care and Use (IACUC) guidelines in an AAALAC-accredited facility. […] Studies were performed with 8-week-old male C57BL/6 mice obtained from the Charles River Laboratory and were randomly assigned to the treatment groups based on body mass. Mice were acclimated for 7 days and housed 4 per cage on a 12-hour light/dark cycle with ad libitum access to standard rodent chow and water.

Consider “1(clac)wKE(Me)EC1GK(Me)PLVk-OH (Ac-[dW]KEXCGKXLV[dK]-OH; thioether (positions not given here); not fully specified (residues 4, 8, bridges); printed as 1(clac)wKE(Me)EC1GK(Me)PLVk-OH) [SEQUENCE ID NO: 3]”, for which the “glucose uptake in human skeletal muscle cells in-vitro” value in series [1] is on record as “significantly increases”. Besides, the stability in-vivo entry in “Stability in-vivo” is given as “enhanced stability”.
On to `CSc1ccc(C(=O)/C=C/c2cc(C)c(OC(C)(C)C(=O)O)c(C)c2)cc1` [Elafibranor], for which the “anti-fibrotic effect in stimulated stellate cells” value in series [2] is “anti-fibrotic effects”.
In “PK profile (half-life)”, `CC(C)C[C@H](NC(=O)[C@@H]1CCCN1C(=O)[C@H](CCCCN)NC(=O)CNC(=O)[C@@H](C)NC(=O)[C@H](CCC(=O)O)NC(=O)[C@H](CC(=O)O)NC(=O)[C@@H](CCCCN)NC(=O)[C@H](N)Cc1c[nH]c2ccccc12)C(=O)N[C@@H](C(=O)N[C@H](CCCCN)C(=O)O)C(C)C` [SEQ ID 2, {d}W{d}KDE{d}AGKPL{d}V{d}K] (H-[dW][dK]DE[dA]GKPL[dV][dK]-OH; N-terminus and C-terminus assumed) came in with a half-life of 1.55 h.
On to `C[C@@H](O)[C@@H]1NC(=O)[C@H](CCCCN)NC(=O)[C@@H](Cc2c[nH]c3ccccc23)NC(=O)[C@H](Cc2ccccc2)NC(=O)[C@@H](NC(=O)[C@H](N)Cc2ccccc2)CSSC[C@@H](C(=O)N[C@H](CO)[C@@H](C)O)NC1=O` [octreotide], for which the half-life result in series [3] is on record as “about 100 min”. Also, the unbound share (fraction unbound) in the series with lipoproteins is given as 0.65.
As to `CC(C)C[C@H](NC(=O)[C@@H]1CCCN1C(=O)[C@H](CCCCN)NC(=O)CNC(=O)[C@H](C)NC(=O)[C@H](CCC(=O)O)NC(=O)[C@H](CC(=O)O)NC(=O)[C@H](CCCCN)NC(=O)[C@@H](N)Cc1c[nH]c2ccccc12)C(=O)N[C@H](C(=O)N[C@@H](CCCCN)C(=O)O)C(C)C` [pep_260] (H-WKDEAGKPLVK-OH; N-terminus and C-terminus assumed), in the series on Human primary cells, the cytotoxicity entry is reported as “not cytotoxic”. In addition, in the series with C57BL/6 mice, the “duration of potent functionality in mice” value came to 2 h.
Consider `NC(=O)CC[C@@H]1NC(=O)[C@H](Cc2ccccc2)NC(=O)[C@H](Cc2ccc(O)cc2)NC(=O)[C@@H](N)CSSC[C@@H](C(=O)N2CCC[C@H]2C(=O)N[C@@H](CCCN=C(N)N)C(=O)NCC(N)=O)NC(=O)[C@H](CC(N)=O)NC1=O` [vasopressin], for which the half-life in series [3] is 0.167 to 0.583 h.

The values are drawn from patent US12398180B2, “Treatment of non-alcoholic fatty liver disease” (NURITAS LIMITED, priority 2019, dated 2025).
